Entries after “also recorded” stand apart in the source; their conditions may differ.
Columns and labels:
[1] = tested on: induced RASA1-deficient mice (Rasa1 fl/fl Ub ert2cre embryos); assay: Developmental angiogenesis in embryos with TM-induced disruption of Rasa1, drug co-administered; details: for EC apoptosis (activated caspase 3) / EC export of collagen IV / deposition of collagen IV in vascular BM / blood vascular hemorrhage (and edema): Rasa1 fl/fl Ub ert2cre embryos, TM at E13.5 with drug i.p. to pregnant mice, assessed at E18.5; for Embryonic vascular phenotypes / Percentage embryos with phenotype (affected/total): TM day E13.5 plus drug; for Embryonic vascular phenotypes / Percentage embryos with phenotype (affected/total) / vascular development / vascular phenotypes, drug administered alone: harvest E18.5; for vascular development / vascular phenotypes, drug administered alone: Rasa1 fl/fl and Rasa1 fl/fl Ub ert2cre embryos, drug from E13.5 in the absence of TM
[2] = tested on: B16 melanoma; assay: Tumor angiogenesis, B16 melanoma model in adult induced RASA1-deficient mice; assay type: in vivo, mouse; details: 13 days
Experimental: TM was administered to mice at 2 months of age (female mice for ID8 experiments and mice of either sex for B16 experiments). After 1 week, mice were injected s.c. in the flank with 1×10^6 ID8 cells or 0.75×10^6 B16F10 cells (provided by Weiping Zou, Michigan Medicine, Ann Arbor Michigan) suspended in 100 μl matrigel (Corning). In B16 experiments, 4PBA was administered to some mice at the same time as tumor and for each day thereafter (0.4 mg/g body weight per injection). ID8 and B16 tumors were harvested 6 weeks or 13 days later respectively and tumor weight and volume was determined as described (Kozak et al. Proc Natl Acad Sci USA. 2010; 107(46):19997-20002; incorporated by reference in its entirety). Tumors were fixed in 4% paraformaldehyde overnight and 5 μm sections were stained with Hoechst and antibodies against CD31, activated caspase 3 and collagen IV as above. Sections were viewed on a BX60 upright fluorescence microscope or a Leica SP5 X confocal microscope. BV density was assessed within a random 800 μm×800 μm region.

[3] = tested on: human and mouse EC; details: human and mouse EC in vitro; cited from earlier work
[4] = tested on: mouse models that express these mutants; details: mouse models expressing point mutant collagen IV variants; cited from earlier work
[5] = tested on: HUVEC; assay: RASA1 siRNA knockdown in HUVEC, intracellular collagen IV accumulation (immunofluorescence); assay type: cell-based, human; details: RASA1 siRNA-treated HUVEC, 2 mM 4PBA, 24 hours
Experimental: HUVEC from pooled donors (Lonza, CC-2519) were cultured in EBM™-2 Basal Medium (Lonza, CC-3156) supplemented with EGMm-2 SingleQuots™ Supplement Pack (Lonza, CC-4176). Cells were transfected with 50 nM RASA1 siRNA (5′-[…]-3′ (SEQ ID NO: 1), Invitrogen) using Lipofectamine RNAi MAX (Invitrogen) reagent according to the manufacturer's protocol. Stealth RNAi™ siRNA Negative Control Hi GC (Invitrogen) was used as control. Following transfection, HUVEC were recultured in the presence or absence of 2 mM 4PBA for 24 hours.
HUVECs were fixed with 4% paraformaldehyde in PBS for 30 minutes at room temperature washed in PBS, permeabilized with 0.2% Triton X-100, and blocked with 10% donkey serum for 1 hour. Cells were incubated with antibodies against collagen IV (1340-01, SouthemBiotech) and calnexin (PA5-34754, Thermo Fisher) overnight, followed by Alexa Fluor®488 or 594 conjugated secondary antibodies (Jackson ImmunoResearch) for 4 hours. Cells were stained with Hoechst to identify nuclei before mounting and viewing on a Leica SP5 X confocal microscope.

[6] = Rasa1 fl/fl littermates, Ert2Cre driver None
[7] = TM-treated Rasa1 fl/fl Ub ert2cre recipients, 4PBA daily from tumor injection

| SMILES | EC apoptosis (activated caspase 3) [1] | EC export of collagen IV / deposition of collagen IV in vascular BM [1] | blood vascular hemorrhage (and edema) [1] | Embryonic vascular phenotypes [1, 6] | Percentage embryos with phenotype (affected/total) [1, 6] | Embryonic vascular phenotypes ([1]; Rasa1 fl/fl, Ert2Cre driver Ub) | Percentage embryos with phenotype (affected/total) ([1]; Rasa1 fl/fl, Ert2Cre driver Ub) | EC apoptosis (activated caspase 3) ([1]; listed as 4-phenylbutyric acid) | EC export of collagen IV / deposition of collagen IV in vascular BM ([1]; listed as 4-phenylbutyric acid) | vascular development / vascular phenotypes, drug administered alone [1] | B16 growth, 4PBA administered alone ([2]; Rasa1 fl/fl and Rasa1 fl/fl Ub ert2cre mice not previously injected with TM, 4PBA daily) | export of collagen IV from BEC and BV angiogenesis in B16 tumors [2, 7] | growth of B16 cells (tumor weight and volume) [2, 7] | B16 growth ([2]; TM-treated Rasa1 fl/fl control mice, 4PBA daily) | blocked export of misfolded point mutant collagen IV variants [3] | intracerebral hemorrhage [4] | intracellular accumulation of collagen IV after RASA1 knockdown [5] |
| --- | --- | --- | --- | --- | --- | --- | --- | --- | --- | --- | --- | --- | --- | --- | --- | --- | --- |
| O=C(O)c1ccnc(C(=O)O)c1 [2,4PDCA, 2,4 pyridinedicarboxylic acid] | absence of BEC apoptosis | normal deposition of collagen IV in vascular BM | absence of hemorrhage and edema | None | 0 (0/6) Percentage | None | 0 (0/3) Percentage |  |  |  |  |  |  |  |  |  |  |
| O=C(O)CCCc1ccccc1 [4PBA, 4-phenylbutyric acid] | completely rescued; also recorded: absence of BEC apoptosis | completely rescued; also recorded: normal deposition of collagen IV in vascular BM | completely rescued; also recorded: absence of hemorrhage and edema | None | 0 (0/5) Percentage | None | 0 (0/7) Percentage | rescued | rescued | no influence; also recorded: absence of vascular phenotypes | no influence | normal | restored | no influence | rescued | reversed | rescue |
| Cn1cnc2c(F)c(Nc3ccc(Br)cc3Cl)c(C(=O)NOCCO)cc21 [AZD6244] |  | rescued; also recorded: normal deposition of collagen IV in vascular BM | prevented; also recorded: absence of hemorrhage and edema | None | 0 (0/8) Percentage | None | 0 (0/7) Percentage |  |  | did not induce any vascular abnormalities; also recorded: absence of vascular phenotypes |  |  |  |  |  |  |  |
| CCOC(=O)c1ccc(O)c(O)c1 [EDHB] | completely rescued; also recorded: absence of BEC apoptosis | completely rescued; also recorded: normal deposition of collagen IV in vascular BM | completely rescued; also recorded: absence of hemorrhage and edema |  |  | None | 0 (0/5) Percentage |  |  |  |  |  |  |  |  |  |  |
| C=CCN(/C=C1/C(=O)O[C@H](COC)[C@@]2(C)C1=C(O)C(=O)C1=C2[C@H](OC(C)=O)C[C@]2(C)C(=O)CC[C@@H]12)CC=C [PX-866] | unable to rescue | unable to rescue | extensive cutaneous hemorrhage was evident |  |  |  |  |  |  |  |  |  |  |  |  |  |  |

Reference: patent US12472189B2, “Treatment and prevention of capillary malformation-arteriovenous malformation” (The Regents of University of Michigan, priority 2020, dated 2025)
